Laboratory results reported in patent publication US4889857A, “Quinolonecarboxylic acid compounds and pharmaceutical use thereof” (Yoshitomi Pharmaceutical Industries, Ltd., priority 1987, dated 1989).
Values after ≈ are worked out from the molar mass of the structure shown. Like-named read-outs stand apart in the source and are kept apart here.

Key:
[1] = test system: Staphylococcus aureus 308A-1; assay: Antibacterial activity in vitro (MIC); assay type: cell-based
[2] = test system: Staphylococcus epidermidis ATCC 12983; assay: Antibacterial activity in vitro (MIC); assay type: cell-based
[3] = test system: Streptococcus pyogenes E-14; assay: Antibacterial activity in vitro (MIC); assay type: cell-based
[4] = test system: Enterococcus faecalis LS-101; assay: Antibacterial activity in vitro (MIC); assay type: cell-based
[5] = test system: Corynebacterium diphtheriae Tronto; assay: Antibacterial activity in vitro (MIC); assay type: cell-based
Method: (§1) The antibacterial activities in vitro (minimum inhibitory concentration, MIC, μg/ml) of the test compounds were measured according to the standard method of the Japanese Chemotherapy Society (Chemotherapy, Vol. 23, p.1126, 1974).
(§2) (Inoculum size: 10^6 cells/ml, Organisms with asterisk (*) were
(§3) cultivated in a 10% horse bloodadded medium.)

[6] = test system: Escherichia coli T-7; assay: Antibacterial activity in vitro (MIC); assay type: cell-based; conditions: T7, inoculum 10^6 cells/ml
Method: as §1, §2, §3

[7] = test system: Klebsiella pneumoniae DT; assay: Antibacterial activity in vitro (MIC); assay type: cell-based
Method: as §1, §2, §3

[8] = test system: Morganella morganii IFO 3168; assay: Antibacterial activity in vitro (MIC); assay type: cell-based; conditions: IFO3168, inoculum 10^6 cells/ml, read-out: MIC
Method: as §1, §2, §3

[9] = test system: Proteus mirabilis IFO 3849; assay: Antibacterial activity in vitro (MIC); assay type: cell-based; conditions: IFO3849, inoculum 10^6 cells/ml, read-out: MIC
Method: as §1, §2, §3

[10] = test system: Pseudomonas cepacia 739; assay: Antibacterial activity in vitro (MIC); assay type: cell-based; conditions: Burkholderia cepacia, inoculum 10^6 cells/ml
[11] = test system: E. coli KC-14; assay: MIC of the infecting organism (Experiment 2); assay type: cell-based; conditions: Escherichia coli, KC14
Method: (§4) Experimental infection was caused by inoculating male mice intraperitoneally with each organism. Each of the test compounds was administered orally to the mice, one hour after the inoculation. The therapeutic effect of each compounds was judged by using a 50% effective dose (ED50) from the survival rate on day 7 after injection by the Probit method as described in Proc. Soc. Exp. Biol. Med., Vol. 57, p.261-264, 1944. The Minimum inhibitory concentrations (MIC) were also measured.

[12] = test system: S. aureus Smith; assay: MIC of the infecting organism (Experiment 2); assay type: cell-based; conditions: Staphylococcus aureus; Table 2; read-out: MIC
Method: as §4

[13] = test system: S. aureus 109(MRSA); assay: MIC of the infecting organism (Experiment 2); assay type: cell-based; conditions: Staphylococcus aureus, Table 2
Method: (§5) Experimental infection was caused by inoculating male mice intraperitoneally with each organism. Each of the test compounds was administered orally to the mice, one hour after the inoculation. […] The Minimum inhibitory concentrations (MIC) were also measured.

[14] = test system: S. pneumoniae Type III; assay: MIC of the infecting organism (Experiment 2); assay type: cell-based; conditions: Streptococcus pneumoniae; Table 2
Method: as §5

[15] = test system: S. pyogenes C-203; assay: MIC of the infecting organism (Experiment 2); assay type: cell-based; conditions: Streptococcus pyogenes, C203; Table 2
Method: as §5

[16] = Acute toxicity; conditions: mouse, in vivo
Method: The compound A was intraveneously (iv) or orally (po) administered to a group of male mice once. After 10 days, the LD50 values were determined by the Litchfield-Wilcoxon method.

[17] = test system: Aerococcus viridans IFO 12219; assay: microbe, parasite or virus in culture; conditions: IFO12219
[18] = test system: Micrococcus luteus IFO 12708; assay: microbe, parasite or virus in culture; conditions: IFO12708

Structure (SMILES) | MIC [6] [µg/mL] | MIC [8] [µg/mL] | MIC [9] [µg/mL] | MIC [10] [µg/mL] | MIC [12] [µg/mL] | MIC [13] [µg/mL] | MIC [14] [µg/mL] | MIC [15] [µg/mL] | MIC [17] [µg/mL] | MIC [18] [µg/mL] | further results
CNCC1CN(c2c(F)cc3c(=O)c(C(=O)O)cn(C4CC4)c3c2F)CCO1 (stereo not drawn) [Compound A, 1-cyclopropyl-6,8-difluoro-1,4,-dihydro-7-[2-(methylaminomethyl)morpholino]-4-oxoquinoline-3-carboxylic acid] | 0.1 (≈ 0.254 µM) | 1.56 (≈ 3.97 µM) | 1.56 (≈ 3.97 µM) | 1.56 (≈ 3.97 µM) | 0.012 | 0.2 | 0.05 | 0.05 | 0.1 (≈ 0.254 µM) | 0.39 (≈ 0.991 µM) | MIC ([1]; 308A1): 0.05 µg/mL (≈ 0.127 µM); MIC ([2]; ATCC12983): 0.05 µg/mL (≈ 0.127 µM); MIC ([3]; E14): 0.1 µg/mL (≈ 0.254 µM); MIC ([4]; LS101): 0.1 µg/mL (≈ 0.254 µM); MIC [5]: 0.025 µg/mL (≈ 0.0636 µM); MIC [7]: 0.2 µg/mL (≈ 0.508 µM); MIC ([11]; Table 2, read-out: MIC): 0.05 µg/mL; LD50 at 240 h ([16]; iv): 210 mg/kg; LD50 at 240 h ([16]; po): > 3000 mg/kg
CC1COc2c(N3CCN(C)CC3)c(F)cc3c(=O)c(C(=O)O)cn1c23 (stereo not drawn) [OFLX, 9-fluoro-3-methyl-10-(4-methyl-1-piperazinyl)-7-oxo-2,3-dihydro-7H-pyrido[1,2,3-de][1,4]-benzoxazine-6-carboxylic acid] | 0.05 (≈ 0.138 µM) | 0.1 (≈ 0.277 µM) | 0.39 (≈ 1.08 µM) | 0.78 (≈ 2.16 µM) | 0.2 | 0.78 | 1.56 | 0.78 | 3.13 (≈ 8.66 µM) | 3.13 (≈ 8.66 µM) | MIC ([1]; 308A1, inoculum 10^6 cells/ml, read-out: MIC): 0.39 µg/mL (≈ 1.08 µM); MIC ([2]; ATCC12983, inoculum 10^6 cells/ml, 10% horse blood-added medium, read-out: MIC): 0.39 µg/mL (≈ 1.08 µM); MIC ([3]; E14, inoculum 10^6 cells/ml, 10% horse blood-added medium, read-out: MIC): 0.78 µg/mL (≈ 2.16 µM); MIC ([4]; LS101, inoculum 10^6 cells/ml, 10% horse blood-added medium, read-out: MIC): 0.78 µg/mL (≈ 2.16 µM); MIC ([5]; inoculum 10^6 cells/ml, 10% horse blood-added medium, read-out: MIC): 0.2 µg/mL (≈ 0.553 µM); MIC ([7]; inoculum 10^6 cells/ml, read-out: MIC): 0.1 µg/mL (≈ 0.277 µM); MIC [11]: 0.025 µg/mL
